Source: patent publication US11155814B2, “Methods for using DNA repair for cell engineering” (Caribou Biosciences, Inc., priority 2016, dated 2021)

Tested on: HEK293T cells
Test: Compound treatment: DNA-PK inhibitor added after sgRNP nucleofection, DNA repair outcomes profiled by amplicon sequencing
Assay type: cell-based, human
Protocol: For compound treatments, sgRNP formation and nucleofection of 293T cells was performed as described above and cells were plated in 150 μl of culture medium. One hour after plating, 50 μl of media containing compound at 4× the final concentration were delivered to the cells. […] 48 hours after compound addition, cells were harvested and processed for genomic DNA preparation as described below.
K562 cells and HSCs were transferred to a thermal cycler compatible plate and pelleted by centrifugation. After the media was gently aspirated, 50 μl EpiBio QuickExtract DNA extraction solution (Epicentre, QE09050) was added into each well and the plate was incubated at 37° C. for 15 minutes. For HEK293 and HCT116 cells, media was gently aspirated from 96-well culture plates and cells were gently rinsed with 1×Phosphate Buffered Saline (PBS). 50 μl of EpiBio QuickExtract DNA extraction solution was added to each well and the plates were incubated at 37° C. for 15 minutes. For all cell types, molecular biology grade water (Teknova) was added to each well to attain a concentration of 1000 genomic copies/μl for subsequent PCR reactions. After addition of water, adherent cells were then transferred to thermal cycler compatible plates. All cell types were lysed (75° C. 10 min, 95° C. 5 min) and the lysate was stored at −80° C. […]
Following secondary alignment, reads were then categorized as “mutant” if they contained an indel within ±5 base pairs of the cut site; otherwise, they were categorized as “wild type”. Each mutant read was assigned to an “indel class” based on the indel type (insertion or deletion), start site, and length.
Heat maps were generated from the processed sequencing data as follows. […] The color intensities in the cells correspond to frequency as a fraction of mutant reads, with the color scale ranging from 0 to 0.2 (saturation). […]

[1] = as inhibitor concentration increased (1.56 μM-25 μM), 48 hours

O=c1cc(N2CCOCC2)oc2c(-c3cccc4c3sc3ccccc34)cccc12 [NU7441]
mean frequency of a subset of large deletions (>3 base pairs) present in the DNA repair profiles [1]: increased
mean frequency of single base insertions and small deletions (<3 base pairs) [1]: decreased
change of the DNA repair patterns at 12 different target sites compared with untreated samples (lowest concentration of inhibitor (1.56 μM), added one hour post nucleofection, harvested 48 hours): apparent
